Source: patent publication US20230382919A1, “OXA- IBOGAINE INSPIRED ANALOGUES FOR TREATMENT OF NEUROLOGICAL AND PSYCHIATRIC DISORDERS” (The Trustees of Columbia University in the City of New York, priority 2021, published 2023)

Test system: C57BL/6J mice
Assay: Tail-flick test
Type: in vivo
Conditions: Mus musculus, sc, 10-30 mg/kg dose range
Experimental: C57BL/6J (8-12 weeks, 22-31 g) were purchased from the Jackson Laboratory (Bar Harbor, ME) and housed 5 mice per cage with food and water available ad libitum. Mice were maintained on a 12-hr light/dark cycle (lights on 7:00-19:00) and all testing was done in the light cycle. Temperature was kept constant at 22±2° C., and relative humidity was maintained at 50±5%. Mice were moved to the testing room 30 minutes before the experiment to allow for acclimation. The body weight of each mouse and base tail-flick value were recorded. Mice were administered a 1 mg/kg s.c. dose of compound solution (volume of injection 220-310 μL based on body weight). After injection mice were returned to the home cage and allowed to rest for 30 minutes. Thirty minutes post injection the tail-flick measurement was taken using thermal stimulation via IR on a Ugo Basile unit set to 52 PSU (ten seconds was used as a maximum latency to prevent tissue damage). Mice were then administered 3 mg/kg s.c. dose, allowed to rest for 30 minutes, followed by another tail-flick measurement. […] Tail-flick latencies for the different doses were expressed as percentage of maximum potential effect (% MPE) by subtracting the experimental value by the base tail flick value then dividing by the difference between the maximum possible latency (10 seconds) and the base tail-flick value and finally multiplying by 100. […]

**Q.** With `c1ccc2c3c([nH]c2c1)C1CCCN(CC3)C1` (stereo not shown) [Compound 61, 1,4,5,6,7,8-hexahydro-2H-3,7-methanoazonino[5,4-b]indole] as the molecule, how does the ED50 read?
**A.** Its ED50 is 16.5 mg/kg.
